Experimental data published in ChEMBL document CHEMBL5137114, “Discovery of IHMT-MST1-58 as a Novel, Potent, and Selective MST1 Inhibitor for the Treatment of Type 1/2 Diabetes” (J Med Chem, 2022).
Active and inactive are the calls of the source. No cut-off for these calls is given here.

Experiments:
[1] = molecular target: T1, Serine/threonine-protein kinase Nek3 (Homo sapiens) (UniProt P51956); experiment: Binding affinity to wild-type human full length NEK3 (M1 to R506 residues) expressed in mammalian expression system at 1 uM by Kinomescan method
T1 sequence (whole entry): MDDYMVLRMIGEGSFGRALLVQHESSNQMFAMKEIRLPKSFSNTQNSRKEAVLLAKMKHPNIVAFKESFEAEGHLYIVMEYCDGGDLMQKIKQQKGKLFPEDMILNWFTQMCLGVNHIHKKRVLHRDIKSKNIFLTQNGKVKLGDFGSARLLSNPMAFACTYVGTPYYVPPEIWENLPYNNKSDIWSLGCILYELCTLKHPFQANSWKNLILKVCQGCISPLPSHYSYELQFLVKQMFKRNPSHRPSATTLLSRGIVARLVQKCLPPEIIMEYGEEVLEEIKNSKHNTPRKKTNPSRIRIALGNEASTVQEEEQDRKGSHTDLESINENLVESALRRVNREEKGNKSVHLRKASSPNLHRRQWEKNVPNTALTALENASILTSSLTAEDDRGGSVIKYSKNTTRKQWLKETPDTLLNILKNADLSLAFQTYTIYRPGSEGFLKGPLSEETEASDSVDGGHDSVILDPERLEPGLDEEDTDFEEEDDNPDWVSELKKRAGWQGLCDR

[2] = AUC (0 to t) in mouse at 1 mg/kg, iv measured up to 12 hrs by LC-MS/MS analysis; type: ADME, organism-based; design: time < 12 hrs, dose 1 mg/kg, route iv; conditions: in vivo
[3] = Cmax in mouse at 10 mg/kg, po measured up to 24 hrs by LC-MS/MS analysis; type: ADME, organism-based; design: dose 10 mg/kg, time < 24 hrs, route po; conditions: in vivo
[4] = Oral bioavailability in Sprague-Dawley rat at 10 mg/kg measured up to 24 hrs by LC-MS/MS analysis; type: ADME, organism-based; conditions: in vivo
[5] = AUC (0 to t) in Beagle dog at 10 mg/kg, po measured up to 24 hrs by LC-MS/MS analysis; type: ADME, organism-based, Canis lupus familiaris; design: dose 10 mg/kg, time < 24 hrs, route po; conditions: in vivo
[6] = Half life in Beagle dog at 10 mg/kg, po measured up to 24 hrs by LC-MS/MS analysis; type: ADME, organism-based, Canis lupus familiaris; conditions: in vivo
[7] = Cmax in mouse plasma at 50 mg/kg, po measured up to 24 hrs by LC-MS/MS analysis; type: ADME, organism-based; design: dose 50 mg/kg, time < 24 hrs, route po
Mus musculus [8] = experiment: Antidiabetic activity against 8 hrs fasted multi low dose STZ-induced C57BL/6J mouse model of type 1 diabetes assessed as decrease in fasting blood glucose level at 50 mg/kg, po administered measured immediately (reference value: 19.3 mmol/L); type: functional
Mus musculus [9] = experiment: Antidiabetic activity against 8 hrs fasted multi low dose STZ-induced C57BL/6J mouse model of type 1 diabetes assessed as decrease in fasting blood glucose level at 50 mg/kg, po administered for 77 days in presence of metformin (reference value: 22.3 mmol/L); type: functional; conditions: time 77 day
Mus musculus [10] = experiment: Antidiabetic activity against multi low dose STZ-induced C57BL/6J mouse model of type 1 diabetes assessed as food intake at 50 mg/kg, po administered for 78 to 79 days (reference value: 4.7 g/day); type: functional; conditions: time 78-79 day
Mus musculus [11] = experiment: Antidiabetic activity against multi low dose STZ-induced C57BL/6J mouse model of type 1 diabetes assessed as food intake at 50 mg/kg, po administered for 1 to 2 days in presence of metformin (reference value: 4.5 g/day); type: functional; conditions: time 1-2 day
Mus musculus [12] = experiment: Antidiabetic activity against multi low dose STZ-induced C57BL/6J mouse model of type 1 diabetes assessed as increase in water consumption at 50 mg/kg, po administered upto 79 days in presence of metformin; type: functional, organism-based; conditions: time <= 79.0 day
Mus musculus [13] = experiment: Antidiabetic activity against 12 hrs fasted high fat diet-STZ-induced C57BL/6J mouse model of type 2 diabetes assessed as decrease in fasting blood glucose level at 50 mg/kg, po qd measured immediately (reference value: 20.3 mmol/L); type: functional
[14] = Toxicity in multi low dose STZ-induced C57BL/6J mouse model of Type 1 diabetes assessed as effect on body weight at 50 mg/kg, po qd; type: organism-based; conditions: in vivo
INS1 [15] = experiment: Cytotoxicity against rat INS1 cells at 10 uM incubated for 72 hrs by Cell Titer-Glo assay; type: toxicity, cell-based; conditions: ins1, 72 h
INS1 [16] = experiment: Protection against IL-1beta-induced cell damage in rat INS1 cells assessed as increase in cell survival at 0.03 to 0.3 uM incubated for 48 hrs by Cell Titer-Glo assay; type: functional, cell-based; conditions: dose 0.03-0.3 µM
[17] = test system: Serine/threonine-protein kinase 4 (Rattus norvegicus); experiment: Inhibition of TNF-alpha-stimulated MST1 phosphorylation in rat INS1 cells incubated for 12 hrs by Western blotting analysis; conditions: dose 0.1-10 µM, DDE = dose-dependent effect
[18] = test system: Serine/threonine-protein kinase 4 (Rattus norvegicus); experiment: Inhibition of INF-gamma-stimulated MST1 phosphorylation in rat INS1 cells incubated for 12 hrs by Western blotting analysis; conditions: dose 0.1-10 µM, DDE = dose-dependent effect

Activity [1]: Active
AUC(0-t) at 12 h [2]: 501 ng·h/mL
Cmax [3]: 1920 ng/mL
F [4]: 73.3%
AUC(0-t) at 24 h [5]: 4940 ng·h/mL
half-life [6]: 5.79 h
Cmax [7]: 3990 ng/mL
inhibition [17]: Dde
inhibition [18]: Dde
SMILES: Cc1ccccc1C1C(=O)N(C)c2cnc(Nc3ccc(S(N)(=O)=O)cc3)nc2N1C (stereo not drawn)
Activity (Mus musculus [8]): 19.4 mmol/L
Activity (Mus musculus [9]): 8.9 mmol/L
Activity (Mus musculus [10]): 4 g/day
Activity (Mus musculus [11]): 5.4 g/day
Activity (Mus musculus [12]): Active
Activity (Mus musculus [13]): 20.2 mmol/L
Activity [14]: Non-Toxic
Activity (INS1 [15]): Non-Toxic
Activity (INS1 [16]): Active
